Read-outs that look alike come from different tables or passages of the source.
How the values were obtained:
[1] = target: T1, HIV integrase (Human immunodeficiency virus type 1 group M subtype B, UniProt P04585); test: biochemical
[2] = target: T1, HIV integrase; test: biochemical; remark: listed apart in the source
[3] = target: HIV reverse transcriptase (Human immunodeficiency virus type 1 group M subtype B, UniProt P03366); test: Reverse transcriptase scintillation proximity assay (Example 4, Table 2); format: biochemical; conditions: for remaining activity at 10 µM: 0.05 h, 10 μM inhibitor, relative to dimethyl sulfoxide = 100%, read-out: % RT activity remaining at 10 μM
Method in brief: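 Purified RT with biotinylated 17mer/50mer RNA-DNA template-primer (39 nm), pH 8.0 Tris with 10 mM MgCl2, 60 mM KCl, dNTPs plus tritiated dTTP; inhibitor preincubated 10 min at 37 °C before enzyme, reaction 3 min. Incorporation read by streptavidin SPA counting.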

[4] = system: HIV; test: Cell-based anti-HIV (XTT) assay (National Institutes of Health); conditions: run by the National Institutes of Health
Source text: The anti-viral evaluations branch of the National Institutes of Health also ran cell-based anti-HIV (XTT) assays and reverse transcriptase (RT) assays on a number of the novel compounds. […] These were: 31, 32, 35, 36, 53, 54, 57, 58, 91, 99, and 103.

[5] = read-out: Inhibition of 3' processing activity (IC50)
[6] = read-out: Inhibition of strand transfer (IC50)

Compound	IC50 [1, 5] [nM]	IC50 [2, 6] [nM]	remaining activity at 10 µM [3] [%]	IC50 ([1]; Inhibition of 3' processing activity (IC50)) [nM]	IC50 ([2]; Inhibition of strand transfer (IC50)) [nM]	IC50 ([3]; read-out: IC50 (RT activity)) [nM]	conclusion of cell-based anti-HIV (XTT) assays and reverse transcriptase (RT) assays [4]
O=C(Nc1ccc2c(O)c(N=Nc3cc(C(=O)O)cc(C(=O)O)c3)c(S(=O)(=O)O)cc2c1)Nc1ccc2c(O)c(N=Nc3cc(C(=O)O)cc(C(=O)O)c3)c(S(=O)(=O)O)cc2c1 [Compound 51]	500	900	1.1	–	–	–	–
COc1cc(N=Nc2c(S(=O)(=O)O)cc3cc(NC(=O)Nc4ccc5c(O)c(N=Nc6cc(OC)c(OC)cc6C(=O)O)c(S(=O)(=O)O)cc5c4)ccc3c2O)c(C(=O)O)cc1OC [Compound 60]	800	2000	6	–	–	–	–
COC(=O)/C=C/c1ccc(N=Nc2c(S(=O)(=O)O)cc3cc(NC(=O)Nc4ccc5c(O)c(N=Nc6ccc(/C=C/C(=O)OC)cc6)c(S(=O)(=O)O)cc5c4)ccc3c2O)cc1 [Compound 56]	> 3000	> 3000	27	–	–	–	–
O=C(Nc1ccc2c(O)c(N=Nc3ccc([N+](=O)[O-])cc3)c(S(=O)(=O)O)cc2c1)Nc1ccc2c(O)c(N=Nc3ccc([N+](=O)[O-])cc3)c(S(=O)(=O)O)cc2c1 [Compound 46]	–	–	4.6	> 3000	> 3000	–	–
COC(=O)c1ccc(N=Nc2c(S(=O)(=O)O)cc3cc(NC(=O)Nc4ccc5c(O)c(N=Nc6ccc(C(=O)OC)cc6I)c(S(=O)(=O)O)cc5c4)ccc3c2O)c(I)c1 [Compound 47]	> 3000	> 3000	2	–	–	–	–
O=C(Nc1ccc2c(O)c(N=Nc3c(Cl)cc(C(=O)O)cc3Cl)c(S(=O)(=O)O)cc2c1)Nc1ccc2c(O)c(N=Nc3c(Cl)cc(C(=O)O)cc3Cl)c(S(=O)(=O)O)cc2c1 [Compound 52]	200	500	1.3	–	–	–	–
O=C(Nc1ccc2c(O)c(N=Nc3ccccc3)c(S(=O)(=O)O)cc2c1)Nc1ccc2c(O)c(N=Nc3ccccc3)c(S(=O)(=O)O)cc2c1 [Compound 4, calcomine orange, reference compound]	2000	2000	–	–	–	1500	–
Cc1cc(C(=O)O)ccc1N=Nc1c(S(=O)(=O)O)cc2cc(NC(=O)C(=O)Nc3ccc4c(O)c(N=Nc5ccc(C(=O)O)cc5C)c(S(=O)(=O)O)cc4c3)ccc2c1O [Compound 103]	< 1000	< 1000	–	–	–	–	active or moderately active
O=C(Nc1ccc2c(O)c(N=Nc3cnc4ccccc4c3)c(S(=O)(=O)O)cc2c1)Nc1ccc2c(O)c(N=Nc3cnc4ccccc4c3)c(S(=O)(=O)O)cc2c1 [Compound 37]	> 3000	> 3000	16	–	–	–	–
O=C(Nc1ccc2c(O)c(N=Nc3ccc4oc(=O)ccc4c3)c(S(=O)(=O)O)cc2c1)Nc1ccc2c(O)c(N=Nc3ccc4oc(=O)ccc4c3)c(S(=O)(=O)O)cc2c1 [Compound 59]	2000	1000	2	–	–	–	–
Cc1ccc(CO)cc1N=Nc1c(S(=O)(=O)O)cc2cc(NC(=O)Nc3ccc4c(O)c(N=Nc5cc(CO)ccc5C)c(S(=O)(=O)O)cc4c3)ccc2c1O [Compound 55]	> 3000	> 3000	24	–	–	–	–
COc1cc(C(=O)O)c(N=Nc2c(S(=O)(=O)O)cc3cc(NC(=O)Nc4ccc5c(O)c(N=Nc6c(C(=O)O)cc(OC)c(OC)c6OC)c(S(=O)(=O)O)cc5c4)ccc3c2O)c(OC)c1OC [Compound 50]	2000	2000	1.3	–	–	–	–
O=C(Nc1ccc2c(O)c(N=Nc3ccc(Br)cc3Br)c(S(=O)(=O)O)cc2c1)Nc1ccc2c(O)c(N=Nc3ccc(Br)cc3Br)c(S(=O)(=O)O)cc2c1 [Compound 41]	> 20000	> 20000	66	–	–	–	–
COc1ccc(N=Nc2c(S(=O)(=O)O)cc3cc(NC(=O)Nc4ccc5c(O)c(N=Nc6ccc(OC)nc6OC)c(S(=O)(=O)O)cc5c4)ccc3c2O)c(OC)n1 [Compound 40]	> 3000	> 3000	31	–	–	–	–
O=C(O)/C=C/c1ccc(N=Nc2c(S(=O)(=O)O)cc3cc(NC(=O)C(=O)Nc4ccc5c(O)c(N=Nc6ccc(/C=C/C(=O)O)cc6)c(S(=O)(=O)O)cc5c4)ccc3c2O)cc1 [Compound 91]	–	–	–	–	–	–	active or moderately active
Cc1cc2nc(N=Nc3c(S(=O)(=O)O)cc4cc(NC(=O)C(=O)Nc5ccc6c(O)c(N=Nc7nc8cc(C)c(C)cc8[nH]7)c(S(=O)(=O)O)cc6c5)ccc4c3O)[nH]c2cc1C [Compound 114]	1000	300	–	–	–	–	–
